Literature values as cited in patent publication US20150064117A1, “NOVEL POLYMORPHS OF REBAUDIOSIDE C AND METHODS FOR MAKING AND USING THE SAME” (Redpoint Bio Corporation, priority 2009, published 2015).
Where two headings read alike, the source gives them in different places.

How the values were obtained:
[1] = relative to sucrose

For `C=C1C[C@@]23CC[C@H]4[C@@](C)(CCC[C@@]4(C)C(=O)O[C@@H]4O[C@H](CO)[C@@H](O)[C@H](O)[C@H]4O)[C@@H]2CC[C@]1(O[C@@H]1O[C@H](CO)[C@@H](O)[C@H](O)[C@H]1O[C@@H]1O[C@@H](C)[C@H](O)[C@@H](O)[C@H]1O)C3` [dulcoside A], the “times sweeter than sucrose” value [1] is listed as 30 times.

In the case of `C=C1C[C@@]23CC[C@H]4[C@@](C)(CCC[C@@]4(C)C(=O)O[C@@H]4O[C@H](CO)[C@@H](O)[C@H](O)[C@H]4O)[C@@H]2CC[C@]1(O[C@@H]1O[C@H](CO)[C@@H](O)[C@H](O[C@@H]2O[C@H](CO)[C@@H](O)[C@H](O)[C@H]2O)[C@H]1O[C@@H]1O[C@H](CO)[C@@H](O)[C@H](O)[C@H]1O)C3` [rebaudioside A], the “effect in mixture (presence and degree of synergism)” value (shortened to “effect in mixture”) (mixture with fructose, intensity equivalent to 3% (w/v-%) sucrose) is listed as “additive”, the “effect in mixture” value (mixture with fructose, intensity equivalent to 5% (w/v-%) sucrose) is listed as “additive” and the “effect in mixture” value (mixture with fructose, intensity equivalent to 7% (w/v-%) sucrose) is listed as “suppressive”. The “effect in mixture” value (mixture with glucose, intensity equivalent to 3% (w/v-%) sucrose) was “additive”, the “effect in mixture” value (mixture with glucose, intensity equivalent to 5% (w/v-%) sucrose) was “additive” and the “effect in mixture” value (mixture with glucose, intensity equivalent to 7% (w/v-%) sucrose) was “suppressive”. For the same compound, the “effect in mixture” value (mixture with sucrose, intensity equivalent to 3% (w/v-%) sucrose) was “synergistic”, the “effect in mixture” value (mixture with sucrose, intensity equivalent to 5% (w/v-%) sucrose) was “additive” and the “effect in mixture” value (mixture with sucrose, intensity equivalent to 7% (w/v-%) sucrose) was “additive”.

In the case of Rebaudioside C, the “times sweeter than sucrose” value [1] is given as ≥ 40 times.
